Where two headings read alike, the source gives them in different places.
How the values were obtained:
primary human T-cells [1] = system: primary human T-cells
primary human T-cells [2] = test: Proliferation assay after 5 days (CellTiter-Glo, CD3 stimulation; PBS counter screen); format: cell-based; settings: Homo sapiens, T-cell, 120 h, CD3 stimulation; for Emax: 5 days, normalized to reference compound A1 as stimulator control = 100%, DMSO neutral control, read-out: Emax proliferation (% activation); for EC50: primary human T-cells, CellTiter-Glo after 5 days, EC50 of fitted sigmoidal curve, read-out: Tcell Proliferation CD3 EC50
Summary of the method: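 Primary human T-cells, with or without CD3 stimulation, exposed to compounds for 5 days; cell number read as ATP by CellTiter-Glo 2.0 luminescence after 45 min equilibration and 15 min reagent incubation at room temperature. Compounds activating unstimulated cells or reducing viability were flagged.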

EC50 (primary human T-cells [1]) [µM]	SMILES	Emax (primary human T-cells [2]) [%]	EC50 (primary human T-cells [2]) [µM]
1.64	C[C@@H]1[C@H](N)C(=O)N(Cc2ccc(Cl)cc2)c2cc(-c3nnc(C(C)(C)C)o3)c(F)cc2S1(=O)=O [Example 190, (2R,3R)-3-amino-7-(5-tert-butyl-1,3,4-oxadiazol-2-yl)-5-[(4-chlorophenyl)methyl]-8-fluoro-2-methyl-1,1-dioxo-2,3-dihydro-1λ^6,5-benzothiazepin-4-one]	114	1.16
11.4	N[C@H]1CS(=O)(=O)c2cc(F)c(-c3nnc(N4CCC4)o3)cc2N(Cc2ccc(Cl)cc2)C1=O [Example 191, (3R)-3-amino-7-[5-(azetidin-1-yl)-1,3,4-oxadiazol-2-yl]-5-[(4-chlorophenyl)methyl]-8-fluoro-1,1-dioxo-2,3-dihydro-1λ^6,5-benzothiazepin-4-one]	184	1.28
0.125	N[C@H]1CS(=O)(=O)c2cc(F)c(-c3noc(N4CCOC5CC54)n3)cc2N(Cc2ccc(Cl)cc2)C1=O (stereo partly drawn) [Example 192, (3R)-3-amino-5-[(4-chlorophenyl)methyl]-8-fluoro-7-[5-(2-oxa-5-azabicyclo[4.1.0]heptan-5-yl)-1,2,4-oxadiazol-3-yl]-1,1-dioxo-2,3-dihydro-1λ^6,5-benzothiazepin-4-one]	110	0.1
0.0387	N[C@H]1CS(=O)(=O)c2cc(F)c(-c3noc(N4CCOC(C(F)(F)F)C4)n3)cc2N(Cc2ccc(Cl)cc2)C1=O (stereo partly drawn) [Example 193, (3R)-3-amino-5-[(4-chlorophenyl)methyl]-8-fluoro-1,1-dioxo-7-[5-[2-(trifluoromethyl)morpholin-4-yl]-1,2,4-oxadiazol-3-yl]-2,3-dihydro-1λ^6,5-benzothiazepin-4-one]	108	0.0213
0.0407	N[C@H]1CS(=O)(=O)c2cc(F)c(-c3noc(N4CCOC5(CC5)C4)n3)cc2N(Cc2ccc(Cl)cc2)C1=O [Example 194, (3R)-3-amino-5-[(4-chlorophenyl)methyl]-8-fluoro-7-[5-(4-oxa-7-azaspiro[2.5]octan-7-yl)-1,2,4-oxadiazol-3-yl]-1,1-dioxo-2,3-dihydro-1λ^6,5-benzothiazepin-4-one]	79	0.0152
0.167	N[C@H]1CS(=O)(=O)c2cc(F)c(-c3noc(NC4CCC4)n3)cc2N(Cc2ccc(Cl)cc2)C1=O [Example 195, (3R)-3-amino-5-[(4-chlorophenyl)methyl]-7-[5-(cyclobutylamino)-1,2,4-oxadiazol-3-yl]-8-fluoro-1,1-dioxo-2,3-dihydro-1λ^6,5-benzothiazepin-4-one]	108	0.105
0.0361	N[C@H]1CS(=O)(=O)c2cc(F)c(-c3noc(N4CCOCC4)n3)cc2N(Cc2ccc(Cl)cc2)C1=O [Example 196, (3R)-3-amino-5-[(4-chlorophenyl)methyl]-8-fluoro-7-(5-morpholino-1,2,4-oxadiazol-3-yl)-1,1-dioxo-2,3-dihydro-1λ^6,5-benzothiazepin-4-one]	81	0.0166
0.226	N[C@H]1CS(=O)(=O)c2cc(F)c(-c3noc(N4CCC(F)(F)CC4)n3)cc2N(Cc2ccc(Cl)cc2)C1=O [Example 197, (3R)-3-amino-5-[(4-chlorophenyl)methyl]-7-[5-(4,4-difluoro-1-piperidyl)-1,2,4-oxadiazol-3-yl]-8-fluoro-1,1-dioxo-2,3-dihydro-1λ^6,5-benzothiazepin-4-one]	112	0.118
0.562	N[C@H]1CS(=O)(=O)c2cc(F)c(-c3noc(N4CCNC(C(F)(F)F)C4)n3)cc2N(Cc2ccc(Cl)cc2)C1=O (stereo partly drawn) [Example 198, (3R)-3-amino-5-[(4-chlorophenyl)methyl]-8-fluoro-1,1-dioxo-7-[5-[3-(trifluoromethyl)piperazin-1-yl]-1,2,4-oxadiazol-3-yl]-2,3-dihydro-1λ^6,5-benzothiazepin-4-one]	112	0.332
> 10	CC(C)(C#N)Nc1nc(-c2cc3c(cc2F)S(=O)(=O)C[C@H](N)C(=O)N3Cc2ccc(Cl)cc2)no1 [Example 199, 2-methyl-2-[[3-[(3R)-3-amino-5-[(4-chlorophenyl)methyl]-8-fluoro-1,1,4-trioxo-2,3-dihydro-1λ^6,5-benzothiazepin-7-yl]-1,2,4-oxadiazol-5-yl]amino]propanenitrile]	71	2.96
0.828	CC1(Nc2nc(-c3cc4c(cc3F)S(=O)(=O)C[C@H](N)C(=O)N4Cc3ccc(Cl)cc3)no2)CC(F)(F)C1 [Example 201, (3R)-3-amino-5-[(4-chlorophenyl)methyl]-7-[5-[(3,3-difluoro-1-methyl-cyclobutyl)amino]-1,2,4-oxadiazol-3-yl]-8-fluoro-1,1-dioxo-2,3-dihydro-1λ^6,5-benzothiazepin-4-one]	156	0.229
1.3	NC(CNc1nc(-c2cc3c(cc2F)S(=O)(=O)C[C@H](N)C(=O)N3Cc2ccc(Cl)cc2)no1)C(F)(F)F (stereo partly drawn) [Example 202, (3R)-3-amino-7-[5-[(2-amino-3,3,3-trifluoro-propyl)amino]-1,2,4-oxadiazol-3-yl]-5-[(4-chlorophenyl)methyl]-8-fluoro-1,1-dioxo-2,3-dihydro-1λ^6,5-benzothiazepin-4-one]	57	1.43
1.58	C#CCOCCOCCCC(C)(C)Nc1nc(-c2cc3c(cc2F)S(=O)(=O)C[C@H](N)C(=O)N3Cc2ccc(Cl)cc2)no1 [Example 203, (3R)-3-amino-5-[(4-chlorophenyl)methyl]-7-[5-[[1,1-dimethyl-4-(2-prop-2-ynoxyethoxy)butyl]amino]-1,2,4-oxadiazol-3-yl]-8-fluoro-1,1-dioxo-2,3-dihydro-1λ^6,5-benzothiazepin-4-one]	99	0.233
0.0785	N[C@H]1CS(=O)(=O)c2cc(F)c(-c3noc(N4CCOC(F)(F)C4)n3)cc2N(Cc2ccc(Cl)cc2)C1=O [Example 204, (3R)-3-amino-5-[(4-chlorophenyl)methyl]-7-[5-(2,2-difluoromorpholin-4-yl)-1,2,4-oxadiazol-3-yl]-8-fluoro-1,1-dioxo-2,3-dihydro-1λ^6,5-benzothiazepin-4-one]	154	0.0348
0.542	N[C@H]1CS(=O)(=O)c2cc(F)c(-c3noc(NC4CC(F)(F)C4)n3)cc2N(Cc2ccc(Cl)cc2)C1=O [Example 206]	168	0.157
16.4	CCc1coc(-c2cc3c(cc2F)S(=O)(=O)C[C@H](N)C(=O)N3Cc2ccc(Cl)cc2)n1 [Example 216, (3R)-3-amino-5-[(4-chlorophenyl)methyl]-7-(4-ethyloxazol-2-yl)-8-fluoro-1,1-dioxo-2,3-dihydro-1λ^6,5-benzothiazepin-4-one]	41	> 20
0.78	N[C@H]1CS(=O)(=O)c2ccc(-c3nnc(CC(F)(F)F)o3)c(F)c2N(Cc2ccc(Cl)cc2)C1=O [Example 217, (3R)-3-amino-5-[(4-chlorophenyl)methyl]-6-fluoro-1,1-dioxo-7-[5-(2,2,2-trifluoroethyl)-1,3,4-oxadiazol-2-yl]-2,3-dihydro-1λ^6,5-benzothiazepin-4-one]	221	2.11
7.86	Cc1c(F)c(-c2nnc(C(C)(C)C)o2)cc2c1S(=O)(=O)C[C@H](N)C(=O)N2Cc1ccc(Cl)cc1 [Example 218, (3R)-3-amino-7-(5-tert-butyl-1,3,4-oxadiazol-2-yl)-5-[(4-chlorophenyl)methyl]-8-fluoro-9-methyl-1,1-dioxo-2,3-dihydro-1λ^6,5-benzothiazepin-4-one]	80	3.89
3.21	CC(C)(C)c1nnc(-c2cc3c(cc2F)S(=O)(=O)C[C@H](N)C(=O)N3Cc2cccc(Cl)c2)o1 [Example 219, (3R)-3-amino-7-(5-tert-butyl-1,3,4-oxadiazol-2-yl)-5-[(3-chlorophenyl)methyl]-8-fluoro-1,1-dioxo-2,3-dihydro-1λ^6,5-benzothiazepin-4-one]	105	2.74
0.382	CC(C)(C)c1nnc(-c2cc3c(cc2F)S(=O)(=O)C[C@H](N)C(=O)N3Cc2ccc(OC3CCOC3)cc2)o1 (stereo partly drawn) [Example 221, (3R)-3-amino-7-(5-tert-butyl-1,3,4-oxadiazol-2-yl)-8-fluoro-1,1-dioxo-5-[(4-tetrahydrofuran-3-yloxyphenyl)methyl]-2,3-dihydro-1λ^6,5-benzothiazepin-4-one]	107	0.255
0.535	CC(C)(C)c1nnc(-c2cc3c(cc2F)S(=O)(=O)C[C@H](N)C(=O)N3Cc2ccc(OCC(F)F)cc2)o1 [Example 222, (3R)-3-amino-7-(5-tert-butyl-1,3,4-oxadiazol-2-yl)-5-[[4-(2,2-difluoroethoxy)phenyl]methyl]-8-fluoro-1,1-dioxo-2,3-dihydro-1λ^6,5-benzothiazepin-4-one]	119	0.235
> 20	CC(C)(C)c1nnc(-c2cc3c(cc2F)S(=O)(=O)C[C@H](N)C(=O)N3Cc2ccc(OC(F)F)cc2)o1 [Example 223, (3R)-3-amino-7-(5-tert-butyl-1,3,4-oxadiazol-2-yl)-5-[[4-(difluoromethoxy)phenyl]methyl]-8-fluoro-1,1-dioxo-2,3-dihydro-1λ^6,5-benzothiazepin-4-one]	128	< 0.162

SMILES	EC50 (primary human T-cells [1]) [µM]	Emax (primary human T-cells [2]) [%]	EC50 (primary human T-cells [2]) [µM]
N[C@H]1CS(=O)(=O)c2cc(F)c(-c3noc(N4[C@@H]5CC[C@H]4COC5)n3)cc2N(Cc2ccc(Cl)cc2)C1=O [Example 200, (3R)-3-amino-5-[(4-chlorophenyl)methyl]-8-fluoro-1,1-dioxo-7-[5-[(1R,5S)-3-oxa-8-azabicyclo[3.2.1]octan-8-yl]-1,2,4-oxadiazol-3-yl]-2,3-dihydro-1λ^6,5-benzothiazepin-4-one]	0.142	88	0.0379

— patent publication US20240368150A1 (Hoffmann-La Roche Inc., priority 2021, published 2024)
